Measurements as given in US8276663B2, “Methods for reducing biological load in subterranean formations” (Halliburton Energy Services Inc., priority 2010, dated 2012).

Columns and labels:
Assay type in all cases: physicochemical
[1] = Compatibility of CMHPG fluid (SIROCCO) and TTPC, FIG. 1
Procedure: First, a treatment fluid containing 35 pptg (pounds per thousand gallons) carboxymethyl hydroxypropyl guar (CMHPG) fluid (SIROCCO, commercially available from Halliburton Energy Services, Inc. of Duncan, Okla.) with a pH of approximately 10.1 at 250° F. was tested and found to be compatible with TTPC up to about 250 ppm, as shown in FIG. 1. Not shown in […] is the starting viscosity of each of the tested fluids, which was as follows: 117.1 for the control, 140.1 for the fluid containing 125 ppm TTPC, 116.2 for the fluid containing 250 ppm TTPC, and 147.4 for the fluid containing 375 pp, TTPC.

[2] = Compatibility of HPG-based fluid (HYBOR H) and TTPC, FIG. 2
From the text: Not shown in FIG. 2 is the starting viscosity of each of the tested fluids, which was as follows: 160.2 for the control, 172.9 for the fluid containing 125 ppm TTPC, 185.5 for the fluid containing 250 ppm TTPC, and 188.7 for the fluid containing 375 pp, TTPC.

[3] = Compatibility of guar-based fluid (HYBOR G) and TTPC, FIG. 3
From the text: The starting viscosity of each of the tested fluids, was as follows: 138.1 for the control, 141.3 for the fluid containing 125 ppm TTPC, 125.7 for the fluid containing 250 ppm TTPC, and 128.8 for the fluid containing 375 pp, TTPC.

[4] = Compatibility of guar-based fluid (DELTA 140) and TTPC, FIG. 4
From the text: The starting viscosity of each of the tested fluids, was as follows: 824.2 for the control, 263.7 for the fluid containing 125 ppm TTPC, 567.3 for the fluid containing 250 ppm TTPC, and 721.6 for the fluid containing 375 pp, TTPC.

[5] = Compatibility of guar-based fluid (DELTA 200) and TTPC, FIG. 5
From the text: The starting viscosity of each of the tested fluids, was as follows: 77.0 for the control, 251.9 for the fluid containing 125 ppm TTPC, 59.7 for the fluid containing 250 ppm TTPC, and 96.8 for the fluid containing 375 pp, TTPC.

[6] = Compatibility of CMHPG-based fluid (pHaser Frac) and TTPC, FIG. 6
From the text: The starting viscosity of each of the tested fluids, was as follows: 719.1 for the control, 1182.63 for the fluid containing 30 ppm TTPC, 1067.5 for the fluid containing 60 ppm TTPC, and 1015.8 for the fluid containing 125 pp, TTPC.

Question: Which results are given for `CCCCCCCCCCCCCC[P+](CCCC)(CCCC)CCCC.[Cl-]` [TTPC, tri-n-butyl tetradecyl phosphonium chloride]?
Answer: starting viscosity of fluid ([1]; 125 ppm TTPC): 140.1; starting viscosity of fluid ([1]; 250 ppm TTPC): 116.2; starting viscosity of fluid ([1]; 375 pp, TTPC): 147.4; TTPC concentration up to which fluid is compatible ([1]; pH approximately 10.1, 250° F.): up to 250 ppm; TTPC concentration up to which fluid is compatible ([2]; 1 gptg GasPerm 1000, 4% KCl, 225° F.): up to 375 ppm; starting viscosity of fluid ([2]; 125 ppm TTPC): 172.9; starting viscosity of fluid ([2]; 250 ppm TTPC): 185.5; starting viscosity of fluid ([2]; 375 pp, TTPC): 188.7; TTPC concentration up to which fluid is compatible ([3]; 1 gptg GasPerm 1000, 5 pptg sodium thiosulfate, 225° F.): up to 375 ppm; starting viscosity of fluid ([3]; 125 ppm TTPC): 141.3; starting viscosity of fluid ([3]; 250 ppm TTPC): 125.7; starting viscosity of fluid ([3]; 375 pp, TTPC): 128.8; TTPC concentration up to which fluid is compatible ([4]; DELTA 140, 2 gptg tetramethylammonium chloride, 3 gptg BC-140, 140° F.): up to 375 ppm; starting viscosity of fluid ([4]; DELTA 140, 125 ppm TTPC): 263.7; starting viscosity of fluid ([4]; DELTA 140, 250 ppm TTPC): 567.3; starting viscosity of fluid ([4]; DELTA 140, 375 pp, TTPC): 721.6; TTPC concentration up to which fluid is compatible ([5]; DELTA 200, 2 gptg Clayfix II, 2.5 gptg BC-200 UC, 204° F.): up to 375 ppm; starting viscosity of fluid ([5]; DELTA 200, 125 ppm TTPC): 251.9; starting viscosity of fluid ([5]; DELTA 200, 250 ppm TTPC): 59.7; starting viscosity of fluid ([5]; DELTA 200, 375 pp, TTPC): 96.8; TTPC concentration up to which fluid is compatible ([6]; 2 gptg tetramethylammonium chloride, 1.1 gptg pH buffer, 1.4 gptg CL-37, 225° F.): up to 125 ppm; starting viscosity of fluid ([6]; 30 ppm TTPC): 1182.63; starting viscosity of fluid ([6]; 60 ppm TTPC): 1067.5; starting viscosity of fluid ([6]; 125 pp, TTPC): 1015.8
